The values that follow come from patent US7803930B2, “Antisense modulation of apolipoprotein B-expression” (Isis Pharmaceuticals, Inc., priority 2002, dated 2010).

In the oligonucleotide strings, read from the 5' end, every base follows the letter of its sugar. An asterisk marks phosphorothioate; unmarked linkages are phosphodiester. Other units and linkages are bracketed, terminal groups are in braces. A string of capitals states the bases alone. e = 2'-O-(2-methoxyethyl) (MOE); [5mC] = 5-methylcytosine; d = 2'-deoxy (DNA)

Data set [1] concerns human apolipoprotein B mRNA. In words: Inhibition of human apolipoprotein B mRNA levels in HepG2 cells, quantitative real-time PCR. It counts as cell-based. Conditions: for % INHIB (inhibition of human apolipoprotein B mRNA levels): HepG2 cells treated with 150 nM of compound, quantitative real-time PCR; for % inhibition 37 nM / % inhibition 75 nM / % inhibition 150 nM / % inhibition 300 nM: Table 19 dose response; for % inhibition 37 nM / % inhibition 75 nM / % inhibition 150 nM / % inhibition 300 nM / % inhibition of apolipoprotein B mRNA levels: normalized to untreated control; for % inhibition of apolipoprotein B mRNA levels: average of two experiments. The essentials:
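Apolipoprotein B transcript was quantified by one-step TaqMan RT-PCR, normalized to GAPDH or RiboGreen RNA, and expressed as percent inhibition against an untreated-sample standard curve. HepG2 cells were harvested 16-24 h after oligonucleotide exposure, which was delivered with 3.75 μg/mL Lipofectin over 4-7 h at 80% confluency.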
(In general: Real-time PCR tracks product formation cycle by cycle.)

A further data set deals with lipoprotein(a). Put plainly: Lipoprotein(a) particle secretion from primary human hepatocytes, ELISA. It counts as cell-based. Particulars: 24 hours. As to the method: Primary human hepatocytes (InVitro Technologies, Baltimore, Md.), cultured and transfected as described herein, were treated for 24 hours with 50 or 150 nM of ISIS 271009 (SEQ ID NO: 319), 281625 (SEQ ID NO: 224), 301012 (SEQ ID NO: 247) or 301027 (SEQ ID NO: 262). Cells were also treated with 150 nM of the control oligonucleotides ISIS 113529 (SEQ ID NO: 859) or ISIS 13650 (SEQ ID NO: 806). Untreated cells served as a control. Following 24 hours of oligonucleotide treatment, the amount of lipoprotein(a) in the culture medium collected from the treated cells was measured using a commercially available ELISA kit (ALerCHEK Inc., Portland, Me.). The results are the average of three experiments and are expressed as percent change in lipoprotein(a) secretion relative to untreated controls.
(In an ELISA, binding on a coated surface is turned into a signal by an enzyme label.)

[2] abbreviates: HepG2 cells, 12.5 nM oligonucleotide.
Setting [3] is: HepG2 cells, 37 nM oligonucleotide.
Setting [4] is: HepG2 cells, 75 nM oligonucleotide.
The mark [5] stands for this setting: HepG2 cells, 150 nM oligonucleotide.
[6] abbreviates: HepG2 cells, 300 nM oligonucleotide.

For the substance “301027 (eG*e[5mC]*eT*e[5mC]*eA*d[5mC]*dT*dG*dT*dA*dT*dG*dG*dT*dT*eT*eT*eA*eT*e[5mC]; antisense) [compound 301027]”, the “% INHIB (inhibition of human apolipoprotein B mRNA levels)” value in data set [1] (averages from two experiments) was 89%. Besides, in data set [1] (HepG2 cells), the “% inhibition 37 nM” value worked out at 80%, the “% inhibition 75 nM” value amounted to 90% and the “% inhibition 300 nM” value stood at 96%. Besides, the “% inhibition 150 nM” value in data set [1] (HepG2 cells, 150 nM) is 95%. In the data set with lipoprotein(a) (50 nM), the “% Change in lipoprotein(a) secretion” value was −33%. For the same substance, in the data set with lipoprotein(a) (150 nM), the “% Change in lipoprotein(a) secretion” value is −44%.

With “113529 (antisense e[5mC]*eT*e[5mC]*eT*eT*dA*d[5mC]*dT*dG*dT*dG*d[5mC]*dT*dG*dT*eG*eG*eA*e[5mC]*eA) [compound 113529]”, in the data set on lipoprotein(a) (150 nM), the “% Change in lipoprotein(a) secretion” value was “+14%”.

Take “301012 (eG*e[5mC]*e[5mC]*eT*e[5mC]*dA*dG*dT*d[5mC]*dT*dG*d[5mC]*dT*dT*d[5mC]*eG*e[5mC]*eA*e[5mC]*e[5mC]) [compound 301012]”: the “% INHIB (inhibition of human apolipoprotein B mRNA levels)” value in data set [1] (averages from two experiments) was 87%. In addition, the “% inhibition of apolipoprotein B mRNA levels” value is recorded as 63% in data set [1] (setting [2]); 79% in data set [1] (setting [3]); 90% in data set [1] (setting [4]); 92% in data set [1] (setting [5]); 95% in data set [1] (setting [6]). Also, the “% Change in apolipoprotein B mRNA expression” value was −51% in data set [1] (HepG2 cells, 10 nM, 24 hour (Table 41)); −44% in data set [1] (HepG2 cells, 50 nM, 24 hour (Table 40)); −72% in data set [1] (HepG2 cells, 50 nM, 24 hour (Table 41)); −75% in data set [1] (HepG2 cells, 150 nM, 24 hour (Table 40)); −92% in data set [1] (HepG2 cells, 150 nM, 24 hour (Table 41)). In addition, the “% Change in lipoprotein(a) secretion” value is on record as −27% in the data set with lipoprotein(a) (50 nM) and −37% in the data set on lipoprotein(a) (150 nM).

As for “281625 (antisense eA*eG*eG*eT*eT*dA*d[5mC]*d[5mC]*dA*dG*d[5mC]*d[5mC]*dA*d[5mC]*dA*eT*eG*e[5mC]*eA*eG) [compound 281625]”, the “% INHIB (inhibition of human apolipoprotein B mRNA levels)” value in data set [1] (averages from two experiments) is 94%. In addition, the “% inhibition of apolipoprotein B mRNA levels” value in data set [1] (setting [2]) is 44%; in data set [1] (setting [3]) it was 66%; in data set [1] (setting [4]) it was 83%; in data set [1] (setting [5]) it was 85%; in data set [1] (setting [6]) it was 94%. For the same substance, the “% inhibition 37 nM” value in data set [1] (HepG2 cells) is listed as 62%. The “% inhibition 75 nM” value in data set [1] (HepG2 cells) is reported as 76%. Besides, the “% inhibition 150 nM” value in data set [1] (HepG2 cells, 150 nM) is on record as 84%. In data set [1] (HepG2 cells), the “% inhibition 300 nM” value came out at 94%. Further, the figures for the “% Change in lipoprotein(a) secretion” value in the data set on lipoprotein(a) (50 nM) and with lipoprotein(a) (150 nM) were −26% and −24%, respectively.

In the case of “271009 (antisense eG*e[5mC]*e[5mC]*eT*e[5mC]*dA*dG*dT*d[5mC]*dT*dG*d[5mC]*dT*dT*d[5mC]*eG*e[5mC]*eG*e[5mC]*e[5mC]) [compound 271009]”, the “% inhibition of apolipoprotein B mRNA levels” value is recorded as 67% in data set [1] (setting [2]); 86% in data set [1] (setting [3]); 92% in data set [1] (setting [4]); 94% in data set [1] (setting [5]); 95% in data set [1] (setting [6]). The “% INHIB” value in data set [1] (Table 12, HepG2 cells, 150 nM, averages from two experiments) is listed as 75%. Besides, the “% inhibition 37 nM” value in data set [1] (HepG2 cells) amounted to 82%. The “% inhibition 75 nM” value in data set [1] (HepG2 cells) is 91%. For the same substance, in data set [1] (HepG2 cells, 150 nM), the “% inhibition 150 nM” value is reported as 94%. For the same substance, the “% inhibition 300 nM” value in data set [1] (HepG2 cells) was found to be 96%. The “% Change in lipoprotein(a) secretion” value with lipoprotein(a) (50 nM) is listed as −25%; in the data set with lipoprotein(a) (150 nM) it was −42%.
